Assay results as given in patent publication US20220370448A1, “PHARMACEUTICAL COMPOSITION COMPRISING THIRD GENERATION SMALL MOLECULE EGFR INHIBITOR AND PREPARATION METHOD THEREOF” (Jiangsu Hansoh Pharmaceutical Group Co., LTD., priority 2018, published 2022).

Columns and labels:
Permeability = type: in vitro ADME
Solubility = type: physicochemical; details: dependence on pH
From the text: The pharmaceutical composition prepared according to the present invention has a good and uniform dissolution in different dissolution media.

EGFR T790M mutant = EGFR T790M mutant (Homo sapiens, UniProt P00533, T790M); details: background statement, WO2016054987; cited from earlier work
wild-type EGFR = wild-type EGFR (Homo sapiens, UniProt P00533); details: background statement, WO2016054987; cited from earlier work
Sequence of wild-type EGFR (P00533 25-1210): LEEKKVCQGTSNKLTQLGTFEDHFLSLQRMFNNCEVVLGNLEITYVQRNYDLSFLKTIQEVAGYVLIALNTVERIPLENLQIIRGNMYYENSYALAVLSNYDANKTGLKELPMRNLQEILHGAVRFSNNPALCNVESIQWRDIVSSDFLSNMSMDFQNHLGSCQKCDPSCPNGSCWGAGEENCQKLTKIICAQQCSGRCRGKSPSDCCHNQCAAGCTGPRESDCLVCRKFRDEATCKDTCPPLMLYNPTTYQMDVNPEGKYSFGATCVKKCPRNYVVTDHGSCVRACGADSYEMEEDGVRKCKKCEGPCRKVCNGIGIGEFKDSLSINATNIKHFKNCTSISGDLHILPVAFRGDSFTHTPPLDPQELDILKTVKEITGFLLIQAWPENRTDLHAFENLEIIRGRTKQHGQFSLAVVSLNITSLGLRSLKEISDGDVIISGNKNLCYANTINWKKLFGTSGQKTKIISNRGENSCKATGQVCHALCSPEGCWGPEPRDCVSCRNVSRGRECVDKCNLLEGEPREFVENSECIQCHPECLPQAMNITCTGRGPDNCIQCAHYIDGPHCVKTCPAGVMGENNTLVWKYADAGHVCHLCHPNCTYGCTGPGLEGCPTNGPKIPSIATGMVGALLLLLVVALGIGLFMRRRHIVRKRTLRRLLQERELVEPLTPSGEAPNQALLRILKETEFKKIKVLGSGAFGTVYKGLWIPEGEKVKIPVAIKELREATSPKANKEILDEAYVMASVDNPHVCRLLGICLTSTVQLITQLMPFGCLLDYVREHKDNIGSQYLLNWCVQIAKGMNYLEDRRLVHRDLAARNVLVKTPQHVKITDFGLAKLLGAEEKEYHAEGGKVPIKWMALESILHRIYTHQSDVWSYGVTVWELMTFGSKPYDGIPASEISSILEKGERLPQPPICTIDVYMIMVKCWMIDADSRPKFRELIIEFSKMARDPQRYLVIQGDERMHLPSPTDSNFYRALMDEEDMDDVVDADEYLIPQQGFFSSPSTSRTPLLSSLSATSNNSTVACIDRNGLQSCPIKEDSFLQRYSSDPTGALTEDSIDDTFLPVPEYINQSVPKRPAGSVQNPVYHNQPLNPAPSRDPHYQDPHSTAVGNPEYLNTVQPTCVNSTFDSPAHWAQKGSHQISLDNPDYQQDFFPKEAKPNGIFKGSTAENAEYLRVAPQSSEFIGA

Sequence of EGFR T790M mutant (P00533 25-1210 T790M): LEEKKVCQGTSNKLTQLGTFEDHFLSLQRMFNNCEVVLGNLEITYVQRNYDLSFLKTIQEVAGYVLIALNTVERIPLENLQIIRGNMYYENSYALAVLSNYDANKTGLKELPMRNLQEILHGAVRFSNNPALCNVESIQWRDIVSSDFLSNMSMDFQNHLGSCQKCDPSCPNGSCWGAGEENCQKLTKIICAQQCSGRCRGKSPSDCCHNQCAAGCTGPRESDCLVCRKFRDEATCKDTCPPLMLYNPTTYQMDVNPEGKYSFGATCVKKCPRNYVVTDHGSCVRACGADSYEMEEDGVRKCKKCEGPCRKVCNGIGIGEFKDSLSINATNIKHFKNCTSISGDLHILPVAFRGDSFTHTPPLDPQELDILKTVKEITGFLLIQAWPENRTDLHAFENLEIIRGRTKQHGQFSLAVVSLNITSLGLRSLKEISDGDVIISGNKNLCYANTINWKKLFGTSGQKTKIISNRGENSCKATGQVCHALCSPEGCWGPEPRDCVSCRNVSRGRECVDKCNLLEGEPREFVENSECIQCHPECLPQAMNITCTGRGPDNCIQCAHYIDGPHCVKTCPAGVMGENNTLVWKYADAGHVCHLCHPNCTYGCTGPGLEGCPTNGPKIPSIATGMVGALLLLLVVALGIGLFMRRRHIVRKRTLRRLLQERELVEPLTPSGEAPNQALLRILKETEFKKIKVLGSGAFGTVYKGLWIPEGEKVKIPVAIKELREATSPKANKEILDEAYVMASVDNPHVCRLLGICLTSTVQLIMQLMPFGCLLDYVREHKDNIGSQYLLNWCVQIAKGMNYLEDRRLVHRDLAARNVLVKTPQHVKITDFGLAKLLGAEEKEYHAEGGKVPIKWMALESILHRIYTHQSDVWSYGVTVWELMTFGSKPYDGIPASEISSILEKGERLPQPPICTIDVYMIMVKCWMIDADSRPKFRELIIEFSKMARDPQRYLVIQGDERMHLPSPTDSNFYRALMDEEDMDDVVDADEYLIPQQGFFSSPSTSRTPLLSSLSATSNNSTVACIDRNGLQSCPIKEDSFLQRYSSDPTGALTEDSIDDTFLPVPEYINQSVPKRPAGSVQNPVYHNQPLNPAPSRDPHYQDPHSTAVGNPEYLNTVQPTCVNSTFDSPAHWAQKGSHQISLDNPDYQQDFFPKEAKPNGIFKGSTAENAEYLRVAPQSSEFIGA

## C=CC(=O)Nc1cc(Nc2nccc(-c3cn(C4CC4)c4ccccc34)n2)c(OC)cc1N(C)CCN(C)C [compound of formula I, N-(5-((4-(1-cyclopropyl-1H-indol-3-yl)pyrimidin-2-yl)amino)-2-((2-(dimethylamino)ethyl)(methyl)amino)-4-methoxyphenyl)acrylamide]
Permeability
  permeability: low permeability
Solubility
  solubility: greatly affected by pH
EGFR T790M mutant
  selectivity for inhibiting the EGFR T790M mutant: high selectivity
wild-type EGFR
  activity on wild-type EGFR: no or low activity
